{
  "source": "patent US12319652B2",
  "about": "“Salts and solid forms of (R)-1-(5-methoxy-1H-indol-1-yl)-N,N-dimethylpropan-2-amine” (priority 2021, dated 2025)",
  "key": {"[1]": {"type": "physicochemical", "conditions": "40° C./75% RH, 10-day time point", "procedure": "Equilibrium Humidity Evaluation (40° C./75% RH for 10 Days)\n100 mg portions of compound 1 salts (for inputs see table below) were placed in the relevant open vials. The powders were finely divided and distributed evenly over the base of the vial, such that equal material coverage across the panel was observed. These samples were then maintained 40°C. under 75% RH. The samples were sub-sampled at intervals of 5 and 10 days and analysed by ^1H NMR, HPLC, XRPD, DSC, TGA and PLM, for evidence of phase change or chemical degradation (FIG. 269-297)."}, "[2]": {"experiment": "Dynamic vapor sorption (DVS)", "type": "physicochemical", "procedure": "There are two main methods to use, one is by time where the equilibration is given by a fixed time, i.e., 1 hour per step and is appropriate for an unknown phase. The second, is by mass per time unit (dm/dt) of 0.002%/min; that is when the difference in weight is less than 0.002%, the instrument moves onto the next step. For unknown hygroscopicity, the method by time is indicated because it gives an idea of water affinity without wasting much time. Ideally the analyses are repeated using the mass equilibration method to confirm. By experience for hygroscopic samples, the analysis can continue for days. For non-hygroscopic samples the difference between the two methods may not be significant.\nConsequently, amorphous batch 1 was analyzed by the fixed time method and once compound 1 fumarate crystalline polymorphic Form A was generated the analyses was repeated as mass per unit time equilibrated @dm/dt ([…]) and is given below (refer to FIG. 12).\n(§1) The moisture sorption properties of the feed API were analysed by DVS Intrinsic instrument (Surface Measurement System). Approximately 20 to 50 mg of API was weighed onto an aluminium pan and loaded into the instrument equilibrated at 25° C. The sample was equilibrated under a dry atmosphere (0% relative humidity) for 60 minutes, before increasing the humidity from 0% to 30% at 5%4 step increment and from 30% to 90% at 10% step increment. A desorption cycle was also applied from 90% to 30% (10% step decrement) and from 30% to 0% (5% step decrement). A rate of change in mass per time unit (dm/dt) of 0.002%/min was set as the equilibrium parameter. Kinetic and isotherm graphs were calculated.\nSpecimens were equilibrated at 0% RH for 60 min, prior to DVS analyses (stepped increment % RH up to 90% RH and stepped decrement % RH down to 0% RH.\nas §1, with “5%” for “5%4”"}, "[3]": {"experiment": "Solubility determinations in SIF buffers (FaSSIF, FeSSIF, FaSSGF)", "type": "physicochemical", "procedure": "At this stage ca. 1 g of each front-runner salt form was prepared. Salt forms that offered significant solubility and stability advantages over the non-ionized API were prioritized. […] Scale Up\nThe solubility of the salts below was determined in FaSSIF, FeSSIF and FaSSGF by reference to the calibration curve of amorphous compound 1.\nSeparate portions of compound 1 were weighed out into aluminum boats and were charged to the relevant volumetric flasks. Solutions were made to volume with 1 to 1 (v/v) acetonitrile/purified water to give calibrants of known API concentrations and analyzed by HPLC, suitable to determine the concentration of compound 1 free base in the SIF buffer solubility study.\nEach sample (150 mg) was suspended in the relevant SIF buffer (5.0 ml), to give a concentration of 30 mg/ml and maintain at 37° C. for 24 h. The pH was adjusted using 1 M HCl or 1 M NaOH, to ensure that the suspension remains in range.\nSample (1 ml) of the well-stirred representative suspensions was obtained at 1 h, 3 h, 6 h and 24 h and the pH was recorded. The pH of the bulk suspension was re-adjusted when necessary. The obtained sample from each vial was centrifuged, and the supernatant was analysed by HPLC (note, the analyte was diluted, when outside of the calibration range); XRPD analysis was performed on the wet sample pellet for evidence of form change, as well as on the oven-dried pellet (undervacuum at 40° C.)."}},
  "data": [
    {"smiles": "COc1ccc2c(ccn2C[C@@H](C)N(C)C)c1.O=C(O)c1ccccc1", "note": "[compound 1 benzoate]", "values": [
      {"measurement": "Change of purity profile / CP", "setting": "[1]", "result": "little changed"},
      {"measurement": "DVS isotherm type / hygroscopicity", "setting": "[2]; 0 to 90 to 0% RH", "result": "hygroscopic"},
      {"measurement": "DVS 0 to 90 to 0% RH (dm/dt <0.002%)", "setting": "[2]; 5.0% RH, desorption", "result": -0.39, "unit": "%"},
      {"measurement": "DVS 0 to 90 to 0% RH (dm/dt <0.002%)", "setting": "[2]; 5.0% RH, sorption", "result": 0.02, "unit": "%"},
      {"measurement": "DVS 0 to 90 to 0% RH (dm/dt <0.002%)", "setting": "[2]; 10.0% RH, desorption", "result": "−0.34", "unit": "%"},
      {"measurement": "DVS 0 to 90 to 0% RH (dm/dt <0.002%)", "setting": "[2]; 10.0% RH, sorption", "result": 0.04, "unit": "%"},
      {"measurement": "DVS 0 to 90 to 0% RH (dm/dt <0.002%)", "setting": "[2]; 15.0% RH, desorption", "result": -0.29, "unit": "%"},
      {"measurement": "DVS 0 to 90 to 0% RH (dm/dt <0.002%)", "setting": "[2]; 15.0% RH, sorption", "result": 0.06, "unit": "%"},
      {"measurement": "DVS 0 to 90 to 0% RH (dm/dt <0.002%)", "setting": "[2]; 20.0% RH, desorption", "result": "−0.25", "unit": "%"},
      {"measurement": "DVS 0 to 90 to 0% RH (dm/dt <0.002%)", "setting": "[2]; 20.0% RH, sorption", "result": 0.10, "unit": "%"},
      {"measurement": "DVS 0 to 90 to 0% RH (dm/dt <0.002%)", "setting": "[2]; 25.0% RH, desorption", "result": "−0.19", "unit": "%"},
      {"measurement": "DVS 0 to 90 to 0% RH (dm/dt <0.002%)", "setting": "[2]; 25.0% RH, sorption", "result": 0.10, "unit": "%"},
      {"measurement": "DVS 0 to 90 to 0% RH (dm/dt <0.002%)", "setting": "[2]; 30.0% RH, desorption", "result": -0.16, "unit": "%"},
      {"measurement": "DVS 0 to 90 to 0% RH (dm/dt <0.002%)", "setting": "[2]; 30.0% RH, sorption", "result": 0.13, "unit": "%"},
      {"measurement": "DVS 0 to 90 to 0% RH (dm/dt <0.002%)", "setting": "[2]; 40.0% RH, desorption", "result": "−0.19", "unit": "%"},
      {"measurement": "DVS 0 to 90 to 0% RH (dm/dt <0.002%)", "setting": "[2]; 40.0% RH, sorption", "result": 0.19, "unit": "%"},
      {"measurement": "DVS 0 to 90 to 0% RH (dm/dt <0.002%)", "setting": "[2]; 50.0% RH, desorption", "result": 0.20, "unit": "%"},
      {"measurement": "DVS 0 to 90 to 0% RH (dm/dt <0.002%)", "setting": "[2]; 50.0% RH, sorption", "result": 0.30, "unit": "%"},
      {"measurement": "DVS 0 to 90 to 0% RH (dm/dt <0.002%)", "setting": "[2]; 60.0% RH, desorption", "result": 0.41, "unit": "%"},
      {"measurement": "DVS 0 to 90 to 0% RH (dm/dt <0.002%)", "setting": "[2]; 60.0% RH, sorption", "result": 0.42, "unit": "%"},
      {"measurement": "DVS weight gain at 70% RH", "setting": "[2]; 70% RH (printed 70° RH in Example 8)", "result": "ca. 0.6 % w/w"},
      {"measurement": "DVS 0 to 90 to 0% RH (dm/dt <0.002%)", "setting": "[2]; 70.0% RH, desorption", "result": 0.61, "unit": "%"},
      {"measurement": "DVS 0 to 90 to 0% RH (dm/dt <0.002%)", "setting": "[2]; 70.0% RH, sorption", "result": 0.58, "unit": "%"},
      {"measurement": "DVS 0 to 90 to 0% RH (dm/dt <0.002%)", "setting": "[2]; 80.0% RH, desorption", "result": 0.92, "unit": "%"},
      {"measurement": "DVS 0 to 90 to 0% RH (dm/dt <0.002%)", "setting": "[2]; 80.0% RH, sorption", "result": 0.89, "unit": "%"},
      {"measurement": "DVS 0 to 90 to 0% RH (dm/dt <0.002%)", "setting": "[2]; 90.0% RH, desorption", "result": 1.52, "unit": "%"},
      {"measurement": "DVS 0 to 90 to 0% RH (dm/dt <0.002%)", "setting": "[2]; 90.0% RH, sorption", "result": 1.52, "unit": "%"},
      {"measurement": "DVS desorption behaviour (hysteresis)", "setting": "[2]; during desorption", "result": "desorption profile was unusual and ended beneath unity"},
      {"measurement": "Disproportionation in FaSSGF", "setting": "[3]; 1H NMR of isolated residue, non-ionised benzoic acid present", "result": "disproportionated"},
      {"measurement": "Observation upon pH adjustment from 4.17 to 1.63", "setting": "[3]; SIF buffer solubility study", "result": "solid was observed"}
    ]}
  ]
}
